Results from publication PMC4907692, “Engineering vanilloid-sensitivity into the rat TRPV2 channel” (eLife, 2016).
pKd: −log10 of the molar value.

Legend:
[1] = biological target: T1, WT TRPV1 (Rattus norvegicus, UniProt O35433); test: Two-electrode voltage-clamp in Xenopus oocytes, WT TRPV1; format: cell-based; details: 100 nM RTx, +60 and -60 mV
T1 construct: expressed in transfected cells; host or cells: Xenopus oocytes (cRNA injection, pGEM-HE)
Description: (§1) To further investigate the putative vanilloid binding pocket in TRPV1, we inspected the cryo-EM structure of TRPV1, looking for residues that are located nearby to the putative RTx density (Figure 1B; regions/residues highlighted in yellow) and that differ between TRPV1 and TRPV2 channels (Figure 3—figure supplement 1; regions highlighted in magenta). […] To quantify the contribution of each of these residues to TRPV1 channel activation by RTx under our experimental conditions, we mutated each to the corresponding residue in TRPV2. We then expressed each construct in oocytes and used the two electrode voltage-clamp technique to study activation by RTx and by the non-specific TRPV channel activator 2-APB. We recorded time courses for channel activation by each agonist while stepping the membrane potential from −60 to +60 mV every 3 s from a holding potential of 0 mV using an external recording solution containing 100 mM KCl (internal K^+ concentration in a healthy oocyte is 100 mM) (Figure 3A, left). We also recorded current-voltage (I-V) relations by stepping over a wider range of voltages in the absence and presence of activators, or in the presence of ruthenium red (RR), a non-specific inhibitor of TRP channels (Figure 3A, right).
The WT rat TRPV1 and TRPV2 channels in the pcDNA3.1 vector were kindly provided by Dr. David Julius (UCSF) ([Caterina et al., 1997]; [Caterina et al., 1999]) and subcloned into the pGEM-HE vector ([Liman et al., 1992]). Mutations were introduced into rTRPV1 using a two-step PCR mutagenesis technique and the resulting constructs were verified by sequencing. All channel constructs were expressed in Xenopus oocytes and studied following 1–4 days incubation after cRNA injection (incubated at 17°C in 96 mM NaCl, 2 mM KCl, 5 mM HEPES, 1 mM MgCl2 and 1.8 mM CaCl2, 50 μg/ml gentamycin, pH 7.6 with NaOH) using the two-electrode voltage-clamp recording technique (OC-725C, Warner Instruments, Hamden, CT) with a 150 μl recording chamber. Data were filtered at 1–3 kHz and digitized at 20 kHz using pClamp software (Molecular Devices, Sunnyvale, CA). […]

[2] = biological target: T2, TRPV1 Y511A (dual GFP- and His-tagged) (Rattus norvegicus, UniProt O35433, Y511A); test: 3H-RTx binding to intact S. cerevisiae cells expressing TRPV1 Y511A; details: 37°C, Figure 1F
T2 construct: expressed in transfected cells; host or cells: Saccharomyces cerevisiae (intact cells)
Description: (§2) To evaluate whether these constructs were competent to bind vanilloids, we initially measured the binding of [^3H]-RTx ([Szallasi and Blumberg, 1999]; [Szallasi et al., 1999]) to intact yeast cells expressing each of the constructs.
(§3) S. cerevisiae cells overexpressing TRPV1 constructs to be used in ligand binding assays on intact cells (Figure 1E,F) were grown as for small scale expression trials. 24 hr after protein induction cells were spun down at 4000g, the supernatant was removed and the pellet resuspended in 1x PBS, normalizing OD600 to 75 for each sample, and aliquoted for storage at -80°C. ^3H-RTx binding assays on cells were performed at 37°C as previously described ([Feng et al., 2015]), but where non-specific binding of RTx was measured using cells expressing GFP alone. The binding of RTx to TRPV1 and TRPV2 in membranes (e.g. Figure 2A,B and 5C) was performed at 37°C unless otherwise stated using membranes prepared from large scale protein preparations of S. cerevisiae containing rat TRPV1 and TRPV2 with a 1D4 tag expressed using a constitutive promoter as in [Moiseenkova-Bell et al., 2008]. Data for binding of RTx to membranes was corrected for non-specific binding, determined using either excess non-radioactive ligand or heat inactivation of the protein, as previously described ([Feng et al., 2015]). […]

[3] = biological target: T3, N-terminus His-tagged TRPV1 (without GFP) (Rattus norvegicus, UniProt O35433); test: 3H-RTx binding to intact S. cerevisiae cells expressing His-tagged TRPV1; details: 37°C, Figure 1F
T3 construct: expressed in transfected cells; host or cells: Saccharomyces cerevisiae (intact cells)
Description: as §2, §3

[4] = biological target: T4, TRPV2 QM (Rattus norvegicus, UniProt Q9WUD2, F472S/L507M/L510T/Q530E); test: Two-electrode voltage-clamp in Xenopus oocytes, TRPV2 QM; format: cell-based; details: 100 nM RTx
T4 construct: expressed in transfected cells; host or cells: Xenopus oocytes (cRNA injection)
T4 sequence (Q9WUD2 1-761 F472S/L507M/L510T/Q530E): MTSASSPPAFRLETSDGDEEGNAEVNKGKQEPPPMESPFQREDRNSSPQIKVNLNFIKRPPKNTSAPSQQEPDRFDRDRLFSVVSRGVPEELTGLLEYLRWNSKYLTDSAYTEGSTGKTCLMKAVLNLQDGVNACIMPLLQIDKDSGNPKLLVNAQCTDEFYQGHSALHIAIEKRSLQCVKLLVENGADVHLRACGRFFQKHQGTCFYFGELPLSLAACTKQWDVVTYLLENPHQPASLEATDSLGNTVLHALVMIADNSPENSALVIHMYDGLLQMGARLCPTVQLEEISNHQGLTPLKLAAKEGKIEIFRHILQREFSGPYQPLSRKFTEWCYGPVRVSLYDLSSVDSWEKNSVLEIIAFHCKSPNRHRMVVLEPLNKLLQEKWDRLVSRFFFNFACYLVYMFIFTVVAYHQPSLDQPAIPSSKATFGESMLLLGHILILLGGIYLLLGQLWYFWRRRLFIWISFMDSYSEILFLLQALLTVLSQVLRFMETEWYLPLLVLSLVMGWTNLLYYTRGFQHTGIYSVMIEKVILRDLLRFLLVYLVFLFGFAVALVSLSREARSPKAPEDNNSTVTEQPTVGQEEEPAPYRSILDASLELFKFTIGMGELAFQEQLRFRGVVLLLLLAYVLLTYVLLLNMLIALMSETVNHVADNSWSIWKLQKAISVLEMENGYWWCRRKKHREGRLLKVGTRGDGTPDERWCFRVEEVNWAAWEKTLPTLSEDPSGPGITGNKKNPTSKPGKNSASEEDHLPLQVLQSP
Description: as §1, with “right). […]” for “right).”

[5] = biological target: T5, TRPV1 QM (S512F, M547L, T550L, E570Q) (Rattus norvegicus, UniProt O35433, E570Q/M547L/S512F/T550L); test: Two-electrode voltage-clamp in Xenopus oocytes, TRPV1 QM; format: cell-based; details: 100 nM RTx
T5 construct: expressed in transfected cells; host or cells: Xenopus oocytes (cRNA injection)
Description: as §1, with “right). […]” for “right).”

[6] = biological target: T6, TRPV1 S512F/T550L (Rattus norvegicus, UniProt O35433, S512F/T550L); test: Two-electrode voltage-clamp in Xenopus oocytes, TRPV1 S512F/T550L; format: cell-based; details: 100 nM RTx
T6 construct: expressed in transfected cells; host or cells: Xenopus oocytes (cRNA injection)
Description: as §1, with “right). […]” for “right).”

[7] = read-out: Kd of 3H-RTx binding (Hill fit)

T3 sequence (O35433 whole entry): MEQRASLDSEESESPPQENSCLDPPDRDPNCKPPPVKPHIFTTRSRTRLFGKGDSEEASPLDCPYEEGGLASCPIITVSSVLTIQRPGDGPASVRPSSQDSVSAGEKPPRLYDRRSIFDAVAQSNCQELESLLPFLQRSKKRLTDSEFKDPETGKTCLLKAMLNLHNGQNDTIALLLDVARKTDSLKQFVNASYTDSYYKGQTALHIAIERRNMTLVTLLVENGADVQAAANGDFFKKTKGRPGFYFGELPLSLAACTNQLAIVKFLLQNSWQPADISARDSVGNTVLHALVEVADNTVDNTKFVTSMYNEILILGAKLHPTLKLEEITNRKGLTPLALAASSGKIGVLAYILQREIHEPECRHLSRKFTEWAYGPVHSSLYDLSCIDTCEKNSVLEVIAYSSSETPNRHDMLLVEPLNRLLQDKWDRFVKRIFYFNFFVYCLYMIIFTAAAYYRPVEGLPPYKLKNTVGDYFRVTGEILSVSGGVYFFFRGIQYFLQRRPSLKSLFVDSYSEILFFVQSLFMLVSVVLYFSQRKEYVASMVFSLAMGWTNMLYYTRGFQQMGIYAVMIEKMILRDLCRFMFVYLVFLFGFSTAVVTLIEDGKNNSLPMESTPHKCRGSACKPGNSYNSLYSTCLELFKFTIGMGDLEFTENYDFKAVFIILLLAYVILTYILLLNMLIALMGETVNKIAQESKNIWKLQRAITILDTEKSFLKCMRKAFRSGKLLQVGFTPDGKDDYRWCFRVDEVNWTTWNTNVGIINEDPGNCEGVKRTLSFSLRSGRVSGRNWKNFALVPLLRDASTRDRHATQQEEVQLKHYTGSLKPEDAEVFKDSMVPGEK
T2 sequence (O35433 whole entry Y511A): as the sequence (O35433 whole entry) above, with Y511A counted along it
T5 sequence (O35433 whole entry S512F/M547L/T550L/E570Q): as the sequence (O35433 whole entry) above, with S512F, M547L, T550L, E570Q counted along it
T1 sequence (O35433 whole entry): as the sequence (O35433 whole entry) above
T6 sequence (O35433 whole entry S512F/T550L): as the sequence (O35433 whole entry) above, with S512F, T550L counted along it

`C=C(C)[C@]12C[C@@H](C)[C@@]34O[C@](Cc5ccccc5)(O[C@@H]1[C@@H]3C=C(COC(=O)Cc1ccc(O)c(OC)c1)C[C@]1(O)C(=O)C(C)=C[C@@H]41)O2` [RTx, resiniferatoxin] was tested, and the “channel activation by RTx” value [1] was “effectively irreversible activation”, the “Hill slope (nH)” value [2] was 1.1 and the pKd [2, 7] was under 6.62. For the same compound, the “Hill slope (nH)” value [3] was 0.6, the pKd [3, 7] was 7.52 and the “channel activation by RTx” value [4] was “robustly activated”. For the same compound, the “channel activation by RTx” value [5] was “completely lost sensitivity” and the “channel activation by RTx” value [6] was “lost sensitivity”.
